# Measurements taken from patent US8003613B2, “Methods and compositions for inducing apoptosis” (University of Florida Research Foundation, Inc., priority 2003, dated 2011).
# Where two headings read alike, the source gives them in different places. Where no end group is shown, it is not given here.
# Columns and labels:
# [1] = test system: VEGFR-3; details: no method given; cited from earlier work
# [2] = test system: MCF10A normal breast cells; test: Detachment assay, MCF10A; type: cell-based, human; details: 6 hours treatment
# Description: (§1) Detached and attached cells after drug treatment for 6 hours cells were counted by hemocytometer. The percent detachment was calculated by dividing the number of detached cells by the total number of cells.
# [3] = test system: BT474, BT20, and MCF7 breast cancer cells; test: Displacement of FAK from focal adhesions, rounding and detachment in breast cancer cells; type: cell-based, human; details: peptide coupled to TAT-FITC
# Description: (§2) Visualization and penetration of Peptide-35 into breast cancer cells was accomplished by coupling the peptide to FITC and using a TAT penetration sequence. Apoptosis was measured using the Elisa Plus cell death detection assay after cells were treated with drug for 24 hours. Apoptosis was further confirmed by the Hoechst assay.
# (§3) Peptide-35 and AV3 (SEQ ID NO: 3) were coupled to a TAT sequence (YGRKKRRQRRR; SEQ ID NO: 5) to allow cellular penetration. Peptide-35 was also coupled to FITC for visualization of the peptide inside cells. Anti-FAK, anti-GST, anti-VEGFR-3, and anti-tubulin antibodies were used for immunoprecipitation and western blotting.
# (§4) Cells were plated onto coverslips in six-well culture plates in medium for 24 hours and stained with anti-FAK and anti-VEGFR-3 antibodies and visualized for co-localization.
# [4] = test system: cancer cells; test: Apoptosis in cancer cell lines; type: cell-based, human; details: different cancer cell lines
# Description: as §2
# (§5) Cells were treated with drug for 24 hours and then harvested. Hoechst 33342 was added and the specimens were mounted on glass coverslips. The slides were viewed under the microscope for apoptotic nuclei. The percent apoptosis was calculated by dividing the number of apoptotic cells by the total number of cells (300).
# [5] = test system: BT474 breast cancer cells; test: Apoptosis assay, BT474; type: cell-based, human; details: 24 hours treatment, confirmed by Hoechst assay
# Description: as §2, §5
# [6] = target: T1, FAK-CD (Homo sapiens, UniProt Q05397); test: Phage display / phage overlay binding to FAK-CD; details: Western blot/phage overlay
# T1 construct: made in house
# T1 sequence (Q05397 693-1052 limits assumed): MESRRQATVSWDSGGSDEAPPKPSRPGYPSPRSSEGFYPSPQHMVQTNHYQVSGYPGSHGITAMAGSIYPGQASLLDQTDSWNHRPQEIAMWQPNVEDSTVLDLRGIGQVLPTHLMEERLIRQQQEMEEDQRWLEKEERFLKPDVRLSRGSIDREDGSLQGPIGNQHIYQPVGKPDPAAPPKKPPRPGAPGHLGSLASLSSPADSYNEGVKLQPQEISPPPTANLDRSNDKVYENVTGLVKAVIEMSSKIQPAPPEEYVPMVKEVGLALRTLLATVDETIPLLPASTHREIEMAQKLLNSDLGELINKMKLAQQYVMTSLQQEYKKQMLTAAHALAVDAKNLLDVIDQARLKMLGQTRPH
# From the text: Peptides that bind FAK were isolated by phage display techniques. Baculovirus FAK-CD was the target protein and peptides were isolated from a phage library (New England Biolabs). After three rounds of panning, recovered phages were sequenced to identify potential peptides that bind FAK. Western-blot analysis and phage overlay were used to confirm the binding of these peptides to FAK. Peptide binding partners to FAK-CD were isolated by phage display. Baculoviral FAK-CD was used as a target and was coated to a plate and peptides were isolated from a phage library containing different 12-amino acids (New England Biolabs). After three rounds of panning, recovered phages were sequenced to identify potential peptides that bind FAK. […] Pure protein (4 μg) with loading buffer was boiled for 10 min and resolved by SDS-PAGE. Proteins were transferred to polyvinylidene difluoride membrane, probed with phage-35, and detected by chemiluminescence (Perkin-Elmer Life Sciences, Inc.).
# [7] = test system: MCF10A normal breast cells; test: Apoptosis assay, MCF10A; type: cell-based, human
# Description: as §2, §5
# [8] = test system: BT474 breast cancer cells; test: Detachment assay, BT474; type: cell-based, human; details: 6 hours treatment
# Description: as §1
# [9] = test system: normal MCF10A cells; test: Displacement of FAK from focal adhesions, rounding and detachment in normal breast cells; type: cell-based, human; details: peptide coupled to TAT-FITC
# Description: as §2, §3, §4
# [10] = target: T2, chicken FAT, FAK C-terminal domain (Gallus gallus, UniProt Q00944); test: NMR analysis of peptide binding to FAT domain; details: preliminary NMR analysis
# T2 sequence (Q00944 915-1046 limits assumed): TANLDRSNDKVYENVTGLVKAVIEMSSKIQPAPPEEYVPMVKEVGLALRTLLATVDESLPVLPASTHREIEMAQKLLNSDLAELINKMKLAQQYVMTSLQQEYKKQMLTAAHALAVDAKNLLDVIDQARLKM
# Description: Structural analysis of VEGFR-3 peptide binding to the FAT domain of FAK is performed. Structural analysis is by nuclear magnetic resonance (NMR) spectroscopy. The solvent accessible area of the FAT-domain is predominantly hydrophilic with hydrophobic patches located on the helix 1-helix 4 face and the helix 2-helix 3 face. The hydrophobic patches may be involved in paxillin binding interactions. Results from these analyses indicate that NMR approaches will be successful in delineating detailed binding interactions between the inhibitor peptide and the FAT domain.
# The site of peptide binding and is determined and specificity of binding is analyzed. Different scrambled peptides are synthesized to analyze the specificity of NMR assay. Different mutant peptides are synthesized to determine specific amino-acids involved in this interaction.
# [11] = test system: IMR neuroblastoma cells; test: Detachment assay, IMR neuroblastoma; type: cell-based; details: IMR neuroblastoma cells with high VEGFR-3; peptide conjugated with TAT
# Description: as §1
# [12] = test system: Mouse Fibroblast, FAK/FAK+; test: Detachment assay, mouse fibroblasts; type: cell-based; details: FAK+ compared with FAK-deficient
# Description: BT474 cells were maintained in RPMI 1640 with 10% fetal bovine serum, 10 μg/ml insulin, and 2 mM L-glutamine. Mouse embryonic fibroblasts were maintained in DMEM with 10% FBS, Amphotericin B, and NEAA. HEK293 human embryonic kidney cells were maintained in DMEM with 10% FBS, and 2 mM L-glutamine. All cells were incubated at 37° C. in 5% CO2. Detached and attached cells after drug treatment for 6 hours cells were counted by hemocytometer. The percent detachment was calculated by dividing the number of detached cells by the total number of cells.
# [13] = test system: IMR neuroblastoma cells; test: Apoptosis assay, IMR neuroblastoma; type: cell-based; details: IMR neuroblastoma cells with high VEGFR-3; peptide conjugated with TAT
# Description: as §5
compound,measurement,setting,value
CC(C)(C)n1nc(-c2ccc(Cl)cc2)c2c(N)ncnc21 [PP2],inhibition of VEGFR-3 phosphorylation,[1],inhibited
"HPWQWTISWPQW (listed as Homo sapiens) [scrambled peptide 35, control peptide, scrambled peptide 35, reference compound]",detachment,[2],minimal detachment
same,"displacement of FAK from focal adhesions, degradation of FAK, rounding, detachment",[3],not
same,apoptosis (with detachment / loss of focal adhesions) in cancer cells,[4],not observed
"WHWQWTPWSIQP (also: TAT and FITC conjugated; listed as Homo sapiens) [Peptide-35, coupled to TAT (and FITC) for cell penetration]",detachment,[2],not in MCF10A normal breast cells
same,detachment,[2]; listed as peptide-35,minimal detachment
same,apoptosis,[5],caused detachment and apoptosis
same,apoptosis,[5]; listed as peptide-35,higher level of apoptosis
same,"displacement of FAK from focal adhesions, degradation of FAK, rounding, detachment",[3],"cause displacement of FAK from focal adhesions, degradation of FAK, rounding, and detachment"
same,"displacement of FAK from focal adhesions, degradation of FAK, rounding, detachment",[3]; listed as peptide-35,caused displacement of FAK from focal adhesions
same,binding to FAK-CD (C-terminal part of FAK),[6],binds to specific sequences of FAK-CD
same,binding to FAK-CD (C-terminal part of FAK),[6]; listed as peptide 35,binds to the C-terminal part of FAK and FAT domain
same,apoptosis,[7],not in MCF10A normal breast cells
same,apoptosis,[7]; listed as peptide 35,not observed
same,detachment,[8],caused detachment
same,detachment,[8]; listed as peptide-35,higher level of detachment
same,"displacement of FAK from focal adhesions, degradation of FAK, rounding, detachment",[9],not in normal MCF10A cells
same,"displacement of FAK from focal adhesions, degradation of FAK, rounding, detachment",[9]; listed as peptide-35,not in normal MCF10A breast cells
same,apoptosis (with detachment / loss of focal adhesions) in cancer cells,[4],caused loss of focal adhesions and apoptosis
same,apoptosis (with detachment / loss of focal adhesions) in cancer cells,[4]; listed as peptide 35,induces detachment and apoptosis
"WHWRPWTPCKMF (also: TAT peptide conjugated; listed as Homo sapiens) [AV3, synthesized peptide homologous to twelve amino-acids of VEGFR-3; conjugated with TAT peptide for penetration into cells]",binding to FAT domain by NMR,[10],detected binding
same,detachment,[11],increased detachment
same,detachment,[12],"Mouse Fibroblast, FAK/FAK+. Greater"
same,apoptosis,[7],not observed
same,apoptosis,[13],increased detachment and apoptosis
same,apoptosis (with detachment / loss of focal adhesions) in cancer cells,[4],induces detachment and apoptosis
same,apoptosis (with detachment / loss of focal adhesions) in cancer cells,[4]; listed as VEGFR-3 (AV-3) peptide,caused apoptosis in cancer cells similar to peptide 35
